Measurements as given in patent US20240418701A1, “SINGLE MOLECULE IDEN[…] A REACTIVE HETERO-NANOPORE” (priority 2021, published 2024).
Values joined by “and” are separate entries in the source; they are usually repeats but may differ in a detail not shown here. Identical values can stand only once.

Columns and labels:
[1] = target: T1, MspA-PBA (phenylboronic acid modified hetero-octameric (N90C)1(M2)7 MspA) (Mycolicibacterium smegmatis, UniProt A0QR29, D117C/D118N/D120N/D145R/D161R/E166K); test: Single channel recording of L-Sorbose binding to MspA-PBA nanopore; parameters: species or system Mycobacterium smegmatis; conditions: for 1/τoff Mean / 1/τon Mean / Amplitude of L-Sorbose events, Current, Mean: N=3
T1 construct: H6 (hexa-histidine) (C); 3-(maleimide) phenylboronic acid (MPBA) adduct on the thiol of Cys90; made in house; host or cells: E. coli BL21 (DE3) pLysS, co-expression from pETDuet-1

octameric M2 MspA-D16H6 = target: T2, octameric M2 MspA-D16H6 (Mycolicibacterium smegmatis, UniProt A0QR29, D117N/D118N/D120N/D145R/D161R/E166K); test: L-Sorbose sensing by octameric M2 MspA-D16H6 (control without PBA); type: binding, Mycobacterium smegmatis; conditions: L-Sorbose 50 mM in cis, +160 mV
T2 construct: D16 (16 consecutive aspartic acids) (C); H6 (hexa-histidine) (C); made in house; host or cells: E. coli BL21 (DE3) pLysS, pET-30a(+)
Experimental: FIG. 11: L-Sorbose sensing by an octameric M2 MspA-D16H6. L-Sorbose sensing was performed with an octameric M2 MspA-D16H6 in a 1.5 M KCl, 10 mM MOPS, pH7.0 buffer. A +160 mV bias was continually applied.
L-Sorbose is a monosaccharide ketose. It exists in all living species, ranging from bacteria to human^50. The commercial production of vitamin C (ascorbic acid) often begins with L-Sorbose^51. To further verify the existence of a PBA in the lumen of the pore, MspA-PBA was used to sense L-Sorbose. The measurement was performed with a single MspA-PBA and a 1.5 M KCl, 10 mM MOPS, pH 7.0 buffer with the continuous application of a +160 m V bias. The addition of L-Sorbose to cis to a 10 mM final concentration resulted immediately in the consecutive appearance of long residing resistive pulse events (FIGS. 1d-1f, Supplementary Video 1). […] In this way, it was confirmed that the introduction of a PBA to the pore lumen is critical for the generation of saccharide sensing events.
The measurement device is composed of two custom-made polyformaldehyde chambers separated by a ˜20 μm-thick Teflon film with a drilled aperture (˜100 μm in diameter). Before the measurement, the aperture was first treated with 0.5% (v/v) hexadecane in pentane and set for evaporation of the pentane. […] All events were detected by the “single channel research” function in Clampfit 10.7. […]

[2] = L-Sorbose 400 μM in cis, +160 mV
[3] = L-Sorbose 800 μM in cis, +160 mV
[4] = L-Sorbose 1200 μM in cis, +160 mV
[5] = L-Sorbose 1600 μM in cis, +160 mV
[6] = L-Sorbose 2000 μM in cis, +160 mV

T2 sequence (A0QR29 other isoform, or with tags, fused parts or gaps D117N/D118N/D120N/D145R/D161R/E166K): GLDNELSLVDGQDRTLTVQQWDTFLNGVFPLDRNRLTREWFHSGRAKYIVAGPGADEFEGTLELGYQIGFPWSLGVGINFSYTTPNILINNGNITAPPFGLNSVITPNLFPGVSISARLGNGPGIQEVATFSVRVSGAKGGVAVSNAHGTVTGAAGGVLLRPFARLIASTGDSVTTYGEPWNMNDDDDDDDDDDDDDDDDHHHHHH

SMILES: O=C(CO)[C@@H](O)[C@H](O)[C@@H](O)CO [L-Sorbose, L-(−)-Sorbose]
- Amplitude of L-Sorbose events, Current, Pore1 ([1]; 40 mV, L-Sorbose 5 mM in cis): 29.3 ± 0.0005 pA
- Amplitude of L-Sorbose events, Current, Pore2 ([1]; 40 mV, L-Sorbose 5 mM in cis): 29.05 ± 0.0005 pA
- Amplitude of L-Sorbose events, Current, Pore3 ([1]; 40 mV, L-Sorbose 5 mM in cis): 29.2 ± 0.002 pA
- 1/τoff Mean ([1]; 40 mV, L-Sorbose 5 mM in cis): 5.06E−04 ms^−1
- 1/τon Mean ([1]; 40 mV, L-Sorbose 5 mM in cis): 7.9E−04 ms^−1
- Amplitude of L-Sorbose events, Current, Mean ([1]; 40 mV, L-Sorbose 5 mM in cis): 29.2 pA
- Amplitude of L-Sorbose events, Current, Pore1 ([1]; 70 mV, L-Sorbose 5 mM in cis): 54.5 ± 0.010 pA
- Amplitude of L-Sorbose events, Current, Pore2 ([1]; 70 mV, L-Sorbose 5 mM in cis): 52.7 ± 0.0008 pA
- Amplitude of L-Sorbose events, Current, Pore3 ([1]; 70 mV, L-Sorbose 5 mM in cis): 52.5 ± 0.0008 pA
- 1/τoff Mean ([1]; 70 mV, L-Sorbose 5 mM in cis): 4.3E−04 ms^−1
- 1/τon Mean ([1]; 70 mV, L-Sorbose 5 mM in cis): 7.4E−04 ms^−1
- Amplitude of L-Sorbose events, Current, Mean ([1]; 70 mV, L-Sorbose 5 mM in cis): 53.08 pA
- Amplitude of L-Sorbose events, Current, Pore1 ([1]; 100 mV, L-Sorbose 5 mM in cis): 74.6 ± 0.002 pA
- Amplitude of L-Sorbose events, Current, Pore2 ([1]; 100 mV, L-Sorbose 5 mM in cis): 73.2 ± 0.009 pA
- Amplitude of L-Sorbose events, Current, Pore3 ([1]; 100 mV, L-Sorbose 5 mM in cis): 73.3 ± 0.002 pA
- 1/τoff Mean ([1]; 100 mV, L-Sorbose 5 mM in cis): 4.04E−04 ms^−1
- 1/τon Mean ([1]; 100 mV, L-Sorbose 5 mM in cis): 8.7E−04 ms^−1
- Amplitude of L-Sorbose events, Current, Mean ([1]; 100 mV, L-Sorbose 5 mM in cis): 73.7 pA
- Amplitude of L-Sorbose events, Current, Pore1 ([1]; 130 mV, L-Sorbose 5 mM in cis): 91.6 ± 0.003 pA
- Amplitude of L-Sorbose events, Current, Pore2 ([1]; 130 mV, L-Sorbose 5 mM in cis): 90.3 ± 0.004 pA
- Amplitude of L-Sorbose events, Current, Pore3 ([1]; 130 mV, L-Sorbose 5 mM in cis): 90.3 ± 0.004 pA
- 1/τoff Mean ([1]; 130 mV, L-Sorbose 5 mM in cis): 3.8E−04 ms^−1
- 1/τon Mean ([1]; 130 mV, L-Sorbose 5 mM in cis): 8.4E−04 ms^−1
- Amplitude of L-Sorbose events, Current, Mean ([1]; 130 mV, L-Sorbose 5 mM in cis): 90.8 pA
- Amplitude of L-Sorbose events, Current, Pore1 ([1]; 160 mV, L-Sorbose 5 mM in cis): 107.7 ± 0.005 pA
- Amplitude of L-Sorbose events, Current, Pore2 ([1]; 160 mV, L-Sorbose 5 mM in cis): 104.9 ± 0.006 pA
- Amplitude of L-Sorbose events, Current, Pore3 ([1]; 160 mV, L-Sorbose 5 mM in cis): 105.3 ± 0.006 pA
- 1/τoff Mean ([1]; 160 mV, L-Sorbose 5 mM in cis): 2.9E−04 ms^−1
- 1/τon Mean ([1]; 160 mV, L-Sorbose 5 mM in cis): 8.5E−04 ms^−1
- Amplitude of L-Sorbose events, Current, Mean ([1]; 160 mV, L-Sorbose 5 mM in cis): 105.9 pA
- Amplitude of L-Sorbose events, Current, Pore1 ([1]; 190 mV, L-Sorbose 5 mM in cis): 122.9 ± 0.007 pA
- Amplitude of L-Sorbose events, Current, Pore2 ([1]; 190 mV, L-Sorbose 5 mM in cis): 116.7 ± 0.008 pA
- Amplitude of L-Sorbose events, Current, Pore3 ([1]; 190 mV, L-Sorbose 5 mM in cis): 120.7 ± 0.010 pA
- 1/τoff Mean ([1]; 190 mV, L-Sorbose 5 mM in cis): 2.9E−04 ms^−1
- 1/τon Mean ([1]; 190 mV, L-Sorbose 5 mM in cis): 8.3E−04 ms^−1
- Amplitude of L-Sorbose events, Current, Mean ([1]; 190 mV, L-Sorbose 5 mM in cis): 120.13 pA
- Amplitude of L-Sorbose events, Current, Pore1 ([1]; 220 mV, L-Sorbose 5 mM in cis): 143.6 ± 0.02 pA
- Amplitude of L-Sorbose events, Current, Pore2 ([1]; 220 mV, L-Sorbose 5 mM in cis): 132.9 ± 0.02 pA
- Amplitude of L-Sorbose events, Current, Pore3 ([1]; 220 mV, L-Sorbose 5 mM in cis): 137.2 ± 0.013 pA
- 1/τoff Mean ([1]; 220 mV, L-Sorbose 5 mM in cis): 3.4E−04 ms^−1
- 1/τon Mean ([1]; 220 mV, L-Sorbose 5 mM in cis): 8.07E−04 ms^−1
- Amplitude of L-Sorbose events, Current, Mean ([1]; 220 mV, L-Sorbose 5 mM in cis): 137.9 pA
- blockage amplitude (ΔI) / current drop of L-Sorbose sensing events ([1]; +160 mV, L-Sorbose 10 mM in cis): ~100 pA and ~102 pA
- 1/τoff Mean [1, 2]: 2.9E−04 ms^−1
- 1/τon Mean [1, 2]: 5.10E−05 ms^−1
- 1/τoff Mean [1, 3]: 2.9E−04 ms^−1
- 1/τon Mean [1, 3]: 1.03E−04 ms^−1
- 1/τoff Mean [1, 4]: 3.08E−04 ms^−1
- 1/τon Mean [1, 4]: 1.7E−04 ms^−1
- 1/τoff Mean [1, 5]: 3.11E−04 ms^−1
- 1/τon Mean [1, 5]: 2.2E−04 ms^−1
- 1/τoff Mean [1, 6]: 2.9E−04 ms^−1
- 1/τon Mean [1, 6]: 3.07E−04 ms^−1
- 1/τoff Mean ([1]; −40 mV, L-Sorbose 5 mM in cis): 5.01E−04 ms^−1
- 1/τon Mean ([1]; −40 mV, L-Sorbose 5 mM in cis): 7.6E−04 ms^−1
- resistive pulse events with M2 MspA (octameric M2 MspA-D16H6): failed to cause any resistive pulse events
